# Laboratory results as given in patent US20140294753A1, “NOVEL USE OF GANODERMIC ACIDS FOR TREATING CANCER” (DOUBLE CRANE BIOTECHNOLOGY CO. LTD, priority 2013, published 2014).
# Columns and labels:
# [1] = tested on: gefitinib-resistant human non-small cell lung cancer cell line PC-9 (PC9-IR); assay: Cell activity analysis (acid phosphatase, ACP)
# Method: (§9) Each cell lines were cultured and maintained in Dulbecco's modified Eagle media (DMEM) supplemented with 1% fetal bovine serum (FBS), 100 IU/ml penicillin, 100 ng/ml streptomycin, 2 mM glutamine, non-essential amino acids and sodium pyruvate in 5% CO2 at 37° C. Cells were grown and maintained in Petri dishes (each was 10 cm in diameter) until reached 80% confluence, then were subject to cell passages. […] Collected the suspended cells, added 2 mL fresh culture media to neutralize any remaining activity of trypsin. Adjusted the cell density by adding appropriate amounts of culture medium to the cell suspension, which was then used to seed the culture plates. The plates were then returned to the incubator and cultured in accordance with the steps described above.
# (§10) In operation, cultured cells in each well were washed with PBS (200 μl), then a reacting solution (100 μl) (10 mM p-NPP, 0.1 M sodium acetate, 0.1% Triton X-100, pH 5.5) was added and allowed to react with the cells for 30-40 min at 37° C. The reaction was subsequently stopped with a basic solution (10 μl, 0.1N NaOH). […]
# [2] = tested on: human breast carcinoma cell line MDA-MB-231; assay: Cell activity analysis (acid phosphatase, ACP); assay type: cell-based; conditions: Breast Cancer MDA-MB-231, treated at least 48 hrs, read-out: IC50 (50% cell activity inhibited)
# Method: (§1) Cell lines used in the present disclosure include human lung adenocarcinoma cell line A549, human hepatocarcinoma cell line Huh7, human colon carcinoma cell line HCT116, human non-small cell lung cancer cell line PC-9, gefitinib-resistant human non-small cell lung cancer cell line PC-9 (PC9-IR), and human breast carcinoma cell line MDA-MB-231.
# (§2) Each cell lines were cultured and maintained in Dulbecco's modified Eagle media (DMEM) supplemented with 1% fetal bovine serum (FBS), 100 IU/ml penicillin, 100 ng/ml streptomycin, 2 mM glutamine, non-essential amino acids and sodium pyruvate in 5% CO2 at 37° C. Cells were grown and maintained in Petri dishes (each was 10 cm in diameter) until reached 80% confluence, then were subject to cell passages. Briefly, cells were first washed with phosphate buffer solution (PBS, 3 ml) once, then treated with 0.05% Trypsin/0.025% EDTA solution (1 mL) for 5 min so that the attached cells become suspended. Collected the suspended cells, added 2 mL fresh culture media to neutralize any remaining activity of trypsin. Adjusted the cell density by adding appropriate amounts of culture medium to the cell suspension, which was then used to seed the culture plates. The plates were then returned to the incubator and cultured in accordance with the steps described above.
# (§3) Cells were seeded in 96-well plates with a density of 3,000 cells/well and cultured in accordance with the procedures described above.
# (§4) Acid Phosphatase analysis
# (§5) Cell activity may be derived from the acid phosphatase (ACP) activity of a cell.
# (§6) In operation, cultured cells in each well were washed with PBS (200 μl), then a reacting solution (100 μl) (10 mM p-NPP, 0.1 M sodium acetate, 0.1% Triton X-100, pH 5.5) was added and allowed to react with the cells for 30-40 min at 37° C. The reaction was subsequently stopped with a basic solution (10 μl, 0.1N NaOH). Adsorption at the wavelength of 405 nm was then measured, and the concentration that inhibited 50% cell activity (IC50) was derived from the absorbance measurement.
# (§7) The effects of GMAS on various cancer cell lines, including colon cancer, hepatoma, breast cancer, and lung cancer, were respectively assessed by cell activity analysis using ACP activity as an indicator. Results are depicted in FIG. 1.
# [3] = tested on: human lung adenocarcinoma cell line A549; assay: Cell activity analysis (acid phosphatase, ACP); assay type: cell-based; conditions: Lung Cancer A549, treated at least 48 hrs, read-out: IC50 (50% cell activity inhibited)
# Method: as §1, §2, §3, §4, §5, §6, §7
# [4] = tested on: human colon carcinoma cell line HCT116; assay: Cell activity analysis (acid phosphatase, ACP); assay type: cell-based; conditions: Colon Cancer HCT-116, treated at least 48 hrs, read-out: IC50 (50% cell activity inhibited)
# Method: as §1, §2, §3, §4, §5, §6, §7
# [5] = tested on: human hepatocarcinoma cell line Huh7; assay: Cell activity analysis (acid phosphatase, ACP); assay type: cell-based; conditions: Hepatoma Huh-7, treated at least 48 hrs, read-out: IC50 (50% cell activity inhibited)
# Method: as §1, §2, §3, §4, §5, §6, §7
# [6] = tested on: human non-small cell lung cancer cell line PC-9; assay: Cell activity analysis (acid phosphatase, ACP); conditions: PC-9, 72 h, read-out: IC50 (50% cell activity inhibited)
# Method: as §9, §10
# HCT-116 cells = assay: Wound healing assay (cell migration); assay type: cell-based, human; conditions: up to 72 hrs
# Method: (§8) Wound healing assay is one of the earliest developed methods to study directional cell migration in vitro, by mimicking cell migration during wound healing in vivo. The basic steps involve creating a “wound” in a cell monolayer, capturing the images at the beginning and at regular intervals during cell migration to close the wound, and comparing the images to quantify the migration rate of the cells.
# Briefly, the assay was carried out using IBIDI culture-inserts and 24-well plates (IBIDI GmbH, Martinsried, Germany). The culture-inserts were respectively placed into each well. Aliquots of […] containing 3×10^4 cells (PC-9, MDA-MB-231 or CL1-5 cells) were added into the two reservoirs of the same insert and incubated for 8 hrs, then the inserts were gently removed from each wells, then culture medium (500 μL, 10% FBS) containing GMAS (25 or 50 μM) or solvent vehicle (i.e., the control) was added to each well. The cells in the culture wells were photographed respectively at 0, 12, 24, 48 and 72 hrs using an inverted microscope. Finally, the migration area or the “wound” area was quantified by Metamorph software (Molecular Devices).
# The effect of GMAS on the migration capability of colon cancer cells was assessed using the wound healing assay as described in the section of “Materials and Methods”. Results are illustrated in FIG. 3.
# PC-9 cells = assay: Wound healing assay (cell migration); assay type: cell-based, human; conditions: 5 μM GMAS; lung cancer cells (PC-9, FIG. 4)
# Method: as §8
# Briefly, the assay was carried out using IBIDI culture-inserts and 24-well plates (IBIDI GmbH, Martinsried, Germany). The culture-inserts were respectively placed into each well. Aliquots of […] containing 3×10^4 cells (PC-9, MDA-MB-231 or CL1-5 cells) were added into the two reservoirs of the same insert and incubated for 8 hrs, then the inserts were gently removed from each wells, then culture medium (500 μL, […]) or solvent vehicle (i.e., the control) was added to each well. The cells in the culture wells were photographed respectively at 0, 12, 24, 48 and 72 hrs using an inverted microscope. Finally, the migration area or the “wound” area was quantified by Metamorph software (Molecular Devices).
smiles,measurement,setting,value
"CC(=O)O[C@H]1CC[C@]2(C)C3=CC[C@]4(C)[C@@H]([C@H](C)CC/C=C(\C)C(=O)O)C[C@H](OC(C)=O)[C@@]4(C)C3=CC[C@H]2C1(C)C [GMAS, ganodermic acid S]",IC50,"[1]; Homo sapiens, 72 h, read-out: IC50 (50% cell activity inhibited)",62.8 µM
same,Resistant Ratio (PC9-IR/PC9),[1]; IC50 of PC9-IR divided by IC50 of PC-9,1.1
same,IC50,[2],20.4 µM
same,IC50,[3],7.9 µM
same,IC50,[4],8 µM
same,IC50,[5],19.1 µM
same,IC50,[6],56.1 µM
same,wound closing phenomenon (migration of colon cancer cells),HCT-116 cells; 25 μM GMAS,slightly inhibited
same,wound closing phenomenon (migration of colon cancer cells),HCT-116 cells; 50 μM GMAS,significantly suppressed
same,reduction of the migrated area as compared with control,PC-9 cells,50%
